Cytotoxicity data for 101 compounds are collected here from ChEMBL document CHEMBL3507680, “University of Dundee, Gates Library screen for HepG2 cell viability”.

Structures are written as SMILES.

This series in a line: Human HepG2 cell viability assay in 384 well format. The series is classed as toxicity, cell-based. Also on record: dose 125 nL, time 70.5 hour; cytotoxicity at 70.5 h: concentration not given beside the values. The note with it: HepG2 cells, read-out: Inhibition.
Take `CCc1ncc(C(=O)NC(C)(C)CC)s1`: the cytotoxicity at 70.5 h is -1.24%. Next, `N#Cc1ccccc1CNC(C(=O)N1CCOCC1)c1ccccc1` (stereo unspecified): -1.56%; `Cc1n[nH]cc1CNC(C(=O)N1CCCCC1)c1ccccc1` (stereo unspecified): 3.13%.

Take `O=C(C(NCc1cccc(F)c1F)c1ccccc1)N1CCOCC1` (stereo unspecified): the cytotoxicity at 70.5 h is -1.89%. As to `N#Cc1ccc(N2CCN(c3ncccn3)CC2)c(C(F)(F)F)c1`, the cytotoxicity at 70.5 h was determined as 8.58%. The same measure for `COCCSc1ccc(C(C)NC(=O)Nc2cccnc2)cc1` (stereo unspecified): -4.37%; for `c1cnn(CC2CCCN2c2ncnc3c2CCC3)c1` (stereo unspecified): 4.07%.

`COc1ccc(S(=O)(=O)N2CCn3nc(C)nc3C2)cc1C`: the cytotoxicity at 70.5 h was -5.13%. Consider `COc1cccc(-c2csc(Cn3ccc(=O)[nH]c3=O)n2)c1`, for which the cytotoxicity at 70.5 h worked out at 19.5%. For the compound `COc1ccc(C)cc1-c1csc(Cn2ccc(=O)[nH]c2=O)n1`, the cytotoxicity at 70.5 h came out at 2.92%.

Consider `CCn1c(C)cc(-c2csc(Cn3ccc(=O)[nH]c3=O)n2)c1C`, for which the cytotoxicity at 70.5 h was -4.42%. Next, `N#Cc1c[nH]c(C(=O)N(Cc2ccc(O)cc2)CC2CC2)c1`: -2.25%; `NC(=O)c1ccc(C(=O)N(Cc2ccc(O)cc2)CC2CC2)cc1`: 6.44%. On to `O=c1ccn(Cc2nc(-c3ccccc3F)cs2)c(=O)[nH]1`, for which the cytotoxicity at 70.5 h is 0.45%. With `NC(=O)NC(=O)CCn1ccc(-c2ccc(F)cc2)n1`, the cytotoxicity at 70.5 h was -1.22%. The same measure for `CC(C)c1cccc(NC(=O)N2CC(N(C)C)C2)c1`: -0.462%; for `NC(=O)NC(=O)CCn1ccc(-c2ccccc2)n1`: 16%. For `CN(C)S(=O)(=O)N1CCC(OCCCc2ccccc2)C1` (stereo unspecified), the cytotoxicity at 70.5 h is -0.922%.

As for `CCS(=O)(=O)N1CCC(OCCCc2ccccc2)C1` (stereo unspecified), the cytotoxicity at 70.5 h was -3.57%.

On to `Cc1cnn(CC2CCCN2c2ncnc3c2CCC3)c1` (stereo unspecified), for which the cytotoxicity at 70.5 h came to 13.3%. Next, `O=C(C1CCN(c2ccnc3ccc(Br)cc23)CC1)N1CCOCC1`: 8.35%; `Cc1csc(N2CCCN(C(=O)c3ccsc3)CC2)n1`: -12%; `CCn1cnnc1CNC(=O)C1CCCN(Cc2cccc(F)c2)C1` (stereo unspecified): -14.4%. For `CC(C)CNC(=O)c1ccc(NC(=O)NC2CC2)cc1Cl`, the cytotoxicity at 70.5 h is -12.8%. Take `Cn1ccnc1CCNC(=O)C1CCCN(Cc2cccc(F)c2)C1` (stereo unspecified): the cytotoxicity at 70.5 h is -7.53%. On to `CC(C)C(C)(C#N)NC(=O)Cn1nnc(-c2cc3ccccc3o2)n1` (stereo unspecified), for which the cytotoxicity at 70.5 h was 18.2%. Take `O=C(NS(=O)(=O)Cc1ccon1)c1ccsc1`: the cytotoxicity at 70.5 h was -3.39%. On to `Cc1nsc(N2CCN(C(=O)Nc3ccc4[nH]ccc4c3)CC2)n1`, for which the cytotoxicity at 70.5 h was found to be 1.81%.

Regarding `CN1CCOC(C(=O)Nc2ccc3[nH]nnc3c2)C1` (stereo unspecified), the cytotoxicity at 70.5 h was -3.75%. As for `CC(NC(=O)N1CCSC(C)(C)C1)c1noc(-c2ccccc2)n1` (stereo unspecified), the cytotoxicity at 70.5 h was -0.307%. Regarding `COc1ccccc1CC(=O)NCc1ccnc(NC2CC2)c1`, the cytotoxicity at 70.5 h was -0.149%.

As for `CCSc1cncc(NCc2ccc(N3CCNC(=O)C3)cc2)n1`, the cytotoxicity at 70.5 h was found to be 3.68%. The same measure for `CCOCCC(=O)NCc1ccnc(NC2CC2)c1`: -3.85%; for `CCC(C)(C)NC(=O)c1ccc(-c2ccco2)[nH]c1=O`: 0.821%. The same measure for `CN1CCOC(C(=O)Nc2ccc3c(c2)nc(C2CC2)n3C)C1` (stereo unspecified): -3.17%; for `Cc1ccc(C)c(CN(C)Cc2nnc3ccccn23)c1`: 14.1%.

As for `Cc1nsc(N2CCCN(C(=O)c3ccc4[nH]ccc4c3)CC2)n1`, the cytotoxicity at 70.5 h was -3.86%. Take `CC(Cn1cccn1)NS(=O)(=O)Cc1ccc(F)cc1` (stereo unspecified): the cytotoxicity at 70.5 h is 5.43%.

As to `Cc1ccc(O)c(C(=O)N2CCC(CN3CCCCCC3)CC2)c1`, the cytotoxicity at 70.5 h is -6.42%. As for `CC(C)C(C)N1Cc2cccc(NCC(=O)N(C)C)c2C1` (stereo unspecified), the cytotoxicity at 70.5 h is -8.25%. With `Cn1ccc(CN2CCCN(c3nccs3)CC2)cc1=O`, the cytotoxicity at 70.5 h was -1.81%.

For the compound `Cc1csc(N2CCCN(Cc3ccn(C)c(=O)c3)CC2)n1`, the cytotoxicity at 70.5 h was -3.93%.

As to `COC(=O)c1cccc(S(=O)(=O)NC(=O)c2cccc(OC)c2OC)c1`, the cytotoxicity at 70.5 h was -6.86%. Next, `Cc1occc1C(=O)Nc1cc(N2CCNC2=O)ccc1Cl`: 6.66%; `Cc1nc(CNC(=O)C(C)(C)c2ccc(F)cc2)no1`: 0.937%; `COc1ccc(-c2nc(CC(=O)N(C)CCC#N)cs2)cc1OC`: 5.07%.

For the compound `CCC(=O)N1CCCN(C(=O)c2cc(C)cc(Br)c2O)CC1`, the cytotoxicity at 70.5 h is -1.86%. Turning to `CC(=O)NC1CCN(c2ccc(C#N)cc2C(F)(F)F)CC1`, the cytotoxicity at 70.5 h was -1.95%. On to `COCC(NC(=O)NCc1sc(C)nc1C)c1ccco1` (stereo unspecified), for which the cytotoxicity at 70.5 h is 7.86%. Next, `Cc1noc2ncc(S(=O)(=O)Nc3cc(CC(C)(C)C)[nH]n3)cc12`: 3.8%; `CC(C)N1Cc2cccc(NCC(=O)N(C)C)c2C1`: -2.57%; `CCC[C@@H](NC(N)=O)C(=O)N1CCc2c(Cl)cccc2C1`: -2.76%. Next, `CC(C)N1Cc2cccc(NCC(=O)N(C)C3CCCCC3)c2C1`: -0.0699%; `CC(C)CCC(C)NC(=O)Nc1ccccn1` (stereo unspecified): -2.67%.

Take `CSc1ccc(OC(C)C(=O)Nc2cc(C)n[nH]2)cc1` (stereo unspecified): the cytotoxicity at 70.5 h is -1.12%.

As to `OC(CN1CCCCc2ccccc21)Cn1cccn1` (stereo unspecified), the cytotoxicity at 70.5 h amounted to 1.14%. `CN1CCOC(C(=O)N2CCC3(CCCCC3)C2)C1` (stereo unspecified): the cytotoxicity at 70.5 h is -5.38%. With `CN1CCOC(C(=O)N2CCOC3(CCCC3)C2)C1` (stereo unspecified), the cytotoxicity at 70.5 h was -1.85%. Next, `COCCN(C(=O)c1cc(-c2ccc(C)s2)[nH]n1)C1CC1`: -3.98%; `NC(=O)CN(C(=O)Cc1ccc(C(F)(F)F)cc1)C1CCCC1`: -7.24%. As to `CC(C)C(C(=O)NCc1ccccc1-n1cccn1)N(C)C` (stereo unspecified), the cytotoxicity at 70.5 h was -7.79%. `N#Cc1c(Cl)nsc1NCC1(c2ccccc2)CCC1`: the cytotoxicity at 70.5 h came to 17.1%. The same measure for `NC(=O)CN(C(=O)Cc1cccc(C(F)(F)F)c1)C1CCCC1`: -2.84%; for `CS(=O)(=O)c1nnc(NC(=O)CCc2cccc(Cl)c2)[nH]1`: -7.49%. Consider `COc1ccc(CN(C)c2ncc(S(N)(=O)=O)s2)c(OC)c1`, for which the cytotoxicity at 70.5 h is -4.13%. The same measure for `CSC(CNS(C)(=O)=O)c1cccc(Cl)c1` (stereo unspecified): 24%; for `CSC(CNS(N)(=O)=O)c1cccc(Cl)c1` (stereo unspecified): -1.44%. The same measure for `CN(CCn1cccn1)S(=O)(=O)c1cccc(Cl)c1C#N`: -7.08%. On to `CCCn1nc(-c2nc(COC)no2)ccc1=O`, for which the cytotoxicity at 70.5 h was -6.41%. As for `CC(C)(CNc1ccc2ccc(F)cc2n1)NS(C)(=O)=O`, the cytotoxicity at 70.5 h was -7.19%. Next, `Cc1noc(COCC(=O)Nc2cc(C)c(Br)cn2)n1`: 4.04%. The same measure for `O=S(=O)(Cc1cccc2cccnc12)NC(CO)c1ccco1` (stereo unspecified): -9.35%; for `O=S(=O)(Cc1ccccc1F)NC(CO)c1ccco1` (stereo unspecified): 18.8%. The same measure for `COc1ncc(NCc2csc(-c3ccco3)n2)cc1C(N)=O`: -11%; for `COCC1CN(C(=O)Nc2cc(Cl)ccc2F)CCO1` (stereo unspecified): -8.58%; for `Cc1cccc(OCc2nnc(SCC3CCCN(C)C3)o2)c1` (stereo unspecified): -5.28%. With `CCC(C(=O)N1CCCN(CCN(C)C)CC1)N1CCCC1=O` (stereo unspecified), the cytotoxicity at 70.5 h is 0.544%. Turning to `Cc1csc(C2(NCC(O)COC(C)C)CCCC2)n1` (stereo unspecified), the cytotoxicity at 70.5 h is -11.4%. The same measure for `CC1CN(C)CCN1C(=O)NCCCn1ccnc1` (stereo unspecified): -1.11%; for `Cn1cc(C(C)(O)CNc2ccccn2)cn1` (stereo unspecified): 2.38%. Turning to `COCC(=O)NCCC(=O)N1CCN(S(=O)(=O)c2ccc(Br)cc2)CC1`, the cytotoxicity at 70.5 h was found to be 13.5%. The same measure for `COCC(=O)NCCC(=O)N1CCN(S(=O)(=O)c2cccc(Br)c2)CC1`: -2.7%. Take `N#Cc1cc(F)c(NCc2ccc(F)cc2)c(F)c1`: the cytotoxicity at 70.5 h was 15.5%.

Take `CCN(CC)C(=O)CNS(=O)(=O)c1cc(Br)ccc1F`: the cytotoxicity at 70.5 h is -5.2%. Next, `Cc1c(C(C)NC(=O)Nc2ccccc2F)cnn1C` (stereo unspecified): -5.46%; `Cc1cnc(C(=O)N2CC[C@@H]3CN(c4ncccn4)CCO[C@@H]3C2)cn1`: -4.8%; `O=C(c1ccco1)N1CCc2ncc(CN3CCOCC3)n2CC1`: 18.7%. For `COc1ccc(CNC(=O)c2nc3c(s2)CCN(C(C)=O)CC3)cc1`, the cytotoxicity at 70.5 h is -11.1%. The same measure for `Cc1n[nH]cc1CNC(C)c1cccc(N2CCCC2=O)c1` (stereo unspecified): 14.3%; for `CNCc1nc(-c2ccc3c(c2)OCO3)c[nH]1`: -13.6%. Turning to `Cc1occc1C(=O)N1CCC2(CC1)CC(OCc1ccccn1)CO2` (stereo unspecified), the cytotoxicity at 70.5 h is 11.9%.

As to `Cc1nnc(N2CC[C@H]3C[C@@H](C(=O)N4CCCC4)O[C@H]3C2)s1`, the cytotoxicity at 70.5 h is 12.6%. Next, `Cc1cc(C(=O)N2CC[C@]3(C[C@@H](OCc4ccccn4)CO3)C2)c(C)o1`: 17.1%. Next, `Cc1cc(C(=O)N2CCn3cc(CN4CCOCC4)nc3C2)no1`: -7.09%. Next, `O=C(NC1CC1)N1CCc2ncc(CN3CCOCC3)n2CC1`: -16%; `O=C(C1CCOCC1)N1CCc2ncc(CN3CCOCC3)n2CC1`: -11.5%; `Cc1nnc(N2CC[C@H]3C[C@H](C(=O)N(C)C)O[C@@H]3C2)s1`: -7.89%. With `CNC(=O)[C@H]1C[C@@H]2CCN(c3nnc(C)s3)C[C@@H]2O1`, the cytotoxicity at 70.5 h was -8.39%. The same measure for `Cc1occc1C(=O)N1CCC[C@]2(C[C@@H](OCc3ccccn3)CO2)C1`: -9.42%; for `O=C(NCc1ccccn1)[C@H]1COC[C@H]2CN(C3CCCC3)C[C@H]21`: 40.2%; for `CN(C)C(=O)[C@H]1C[C@H]2OCC[C@H]2N(Cc2ccc3ccccc3n2)C1`: 17.2%.
